Data from patent publication US6541503B2, “Substituted oxindole derivatives as protein tyrosine kinase and as protein serine/threonine kinase inhibitors” (SmithKline Beecham Corporation, priority 1997, dated 2003).
Like-named read-outs stand apart in the source and are kept apart here.

Tests used:
Assay type in all cases: biochemical
CDK1 = CDK1 (Homo sapiens, UniProt P06493); assay: Cyclin dependent protein kinase substrate phosphorylation assay, CDK1
Experimental: Cyclin dependent protein kinase assays utilized the peptides Biotin-aminohexyl-[…] and Biotin-aminohexyl-[…]-NH2 as phosphoryl group acceptors. CDK1 and CDK2 were both expressed utilizing a baculovirus expression system and were partially purified to comprise 20-80% of total protein, with no detectable competing reactions present. Typically, assays were performed by incubating either enzyme (0.2-10 nM), with and without inhibitor, one of the two peptide substrates ([…]), [γ-^32P]ATP ([…]), and 10-20 mM Mg^2+ for periods of time generally within the range 10-120 min. Reactions were terminated with 0.2-2 volumes of either 20% acetic acid or 50-100 mM EDTA buffered to pH 7 (substrate consumption<20%). The buffer employed in enzyme assays was either 30 mM HEPES 7.4 containing 0.15 M NaCl and 5% DMSO, the buffer 50 mM MOPS 7.0 containing 0.15 M NaCl and 5% DMSO, or the buffer 100 mM HEPES pH 7.5 containing 0.1 mg /mL BSA and 5% DMSO. Inhibitors were diluted in 100% DMSO prior to addition into the assay. Detection of peptide phosphorylation was accomplished by scintillation counting following either collection of peptide onto phosphocellulose filters (for reactions stopped with acetic acid), collection of peptide in wells of 96 well plates coated with Streptavidin (Pierce) (reactions were stopped with EDTA), or addition of Avidin coated Scintillant impregnated beads (Scintillation Proximity Assays from Amersham, reactions were stopped with EDTA).

VEGFR2 = VEGFR2 (Homo sapiens, UniProt P35968); assay: VEGFR-2 kinase domain peptide phosphorylation Elisa
Experimental: The peptide substrate used in the VEGFR-2 assay was biotin-aminohexyl-[…]-NH2. The kinase domain of the enzyme was purified to homogeneity from a baculovirus expression system. The enzyme was preactivated on ice for 15 min in the presence of 100 μM ATP and 20 mM MgCl2, and stored at −80° C. until needed for assay. The activated enzyme was diluted to 0.4 nM into a 60 μl reaction containing 100 mM HEPES, pH 7.5, 5 μM ATP, 10 mM MgCl2, 5 μM peptide, 0.1 mM DTT, 0.05 mg/ml BSA, and an inhibitor at varying concentrations. The controls were reactions in the presence (negative controls) or absence (positive controls) of 50 mM EDTA. Reactions were incubated for 30 min at room temperature, and then quenched by the addition of EDTA to 60 mM in 210 μl. The quenched samples (190 μl) were transferred to a neutravidin-coated plate (Pierce) and incubated at room temperature for 40 min to allow biotinylated peptide to bind to the neutravidin. The unbound components of the reaction were removed by washing with a plate washer, then 200 μl HRP-PY20 anti-phosphotyrosine antibody conjugate was added to each well. After incubation for 40 min, the plate was washed to remove any unbound antibody. A HRP substrate, K-blue (Neogen) was added and the reaction was quenched with Red Stop (Neogen) after 20 min. The absorbance of the wells was read at A650 in a plate reader. IC50 values were obtained by fitting raw data to A650=Vmax*(1−[l]/IC50+[l])))+b, where b is background.

cSrc = cSrc (Homo sapiens, UniProt P12931); assay: Src peptide phosphorylation assay (Elisa or isotope based)
Experimental: The peptide substrates used in Src and Lck assays were biotin-aminohexyl-EEIYGEF-NH2 (Src) and biotin-aminohexyl-[…]-NH2 (Lck). The src and Ick proteins were purified to homogeneity from a baculovirus expression system and preactivated before adding to assay mixtures. The maximum activation was achieved by incubating concentrated enzyme (10-30 mM) on ice for 40 min in the presence of 1 mM ATP and 10 mM MgCl2 in 100 mM HEPES, pH 7.5. The activated enzyme was diluted to 2 nM into a 50-mL reaction mixture containing 100 mM HEPES, pH 7.5. 5 mM ATP, 10 mM MgCl2, 2 mM peptide, 0.05 mg/mL BSA, and an inhibitor at varying concentrations and with or without 8 mCi/mL [γ-^33P]ATP dependent upon the method of analysis for the extent of reaction. The controls were reactions in the presence (negative controls) or absence (positive controls) of 50 mM EDTA. Reactions were allowed to proceed for 30 min at room temperature and quenched with addition of EDTA to 50 mM in 220 mL. The extent of reactions was analyzed in one of the two ways: an Elisa-based and a radioactive isotope-based. The quenched samples (200 mL) were transferred to a neutravidin coated plate (Perice) and incubated at room temperature for 40 min to allow biotinylated peptide to bind to neutravidin. The unbound peptide and the rest of the solution was washed away using a plate washer. In the Elisa format, a 200 mL HRP-PY20 anti phosphotyrosine antibody conjugate solution was added. After incubation for about 30 min, the plated was washed to remove unbound antibody-HRP conjugate. An Elisa substrate, K-blue (Neogen), was added and the Elisa reaction quenched with Red-stop (Neogen) after 15 min. The plate was read at A625 in a plate reader. In the isotope-based format, the reactions had been performed in the presence of [γ-^33P]ATP. 200 mL Scintiverce DB was added to each well of the plate with bound biotin-peptide. The plate was sealed and counted in a micro-b-counter (Wallac). IC50 values were obtained by fitting raw data to A625 (cpm)=Vmax*(1−([l]/(IC50+[l])))+b, where b is background.

Lck = Lck (Homo sapiens, UniProt P06239); assay: Lck peptide phosphorylation assay (Elisa or isotope based)
CDK2 = CDK2 (Homo sapiens, UniProt P24941); assay: Cyclin dependent protein kinase substrate phosphorylation assay, CDK2
Experimental: CDK1 and CDK2 were both expressed utilizing a baculovirus expression system and were partially purified to comprise 20-80% of total protein, with no detectable competing reactions present. […] Reactions were terminated with 0.2-2 volumes of either 20% acetic acid or 50-100 mM EDTA buffered to pH 7 (substrate consumption<20%). The buffer employed in enzyme assays was either 30 mM HEPES 7.4 containing 0.15 M NaCl and 5% DMSO, the buffer 50 mM MOPS 7.0 containing 0.15 M NaCl and 5% DMSO, or the buffer 100 mM HEPES pH 7.5 containing 0.1 mg /mL BSA and 5% DMSO. Inhibitors were diluted in 100% DMSO prior to addition into the assay. Detection of peptide phosphorylation was accomplished by scintillation counting following either collection of peptide onto phosphocellulose filters (for reactions stopped with acetic acid), collection of peptide in wells of 96 well plates coated with Streptavidin (Pierce) (reactions were stopped with EDTA), or addition of Avidin coated Scintillant impregnated beads (Scintillation Proximity Assays from Amersham, reactions were stopped with EDTA).

Chain of Lck (P06239 whole entry, species assumed): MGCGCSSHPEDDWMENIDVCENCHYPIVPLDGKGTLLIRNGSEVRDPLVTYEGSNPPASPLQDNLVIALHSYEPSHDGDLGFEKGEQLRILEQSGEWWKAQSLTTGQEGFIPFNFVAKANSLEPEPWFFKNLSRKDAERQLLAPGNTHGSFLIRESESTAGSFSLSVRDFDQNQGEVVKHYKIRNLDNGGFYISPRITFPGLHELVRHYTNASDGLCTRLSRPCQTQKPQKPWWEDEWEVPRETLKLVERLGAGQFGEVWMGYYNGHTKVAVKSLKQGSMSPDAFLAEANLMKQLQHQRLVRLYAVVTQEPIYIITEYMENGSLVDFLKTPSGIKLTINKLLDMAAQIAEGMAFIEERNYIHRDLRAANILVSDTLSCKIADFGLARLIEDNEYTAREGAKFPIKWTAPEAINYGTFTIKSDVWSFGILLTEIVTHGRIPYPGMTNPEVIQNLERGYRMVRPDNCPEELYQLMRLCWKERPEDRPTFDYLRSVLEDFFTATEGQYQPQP
Chain of VEGFR2 (P35968 834-1162 limits assumed, species assumed): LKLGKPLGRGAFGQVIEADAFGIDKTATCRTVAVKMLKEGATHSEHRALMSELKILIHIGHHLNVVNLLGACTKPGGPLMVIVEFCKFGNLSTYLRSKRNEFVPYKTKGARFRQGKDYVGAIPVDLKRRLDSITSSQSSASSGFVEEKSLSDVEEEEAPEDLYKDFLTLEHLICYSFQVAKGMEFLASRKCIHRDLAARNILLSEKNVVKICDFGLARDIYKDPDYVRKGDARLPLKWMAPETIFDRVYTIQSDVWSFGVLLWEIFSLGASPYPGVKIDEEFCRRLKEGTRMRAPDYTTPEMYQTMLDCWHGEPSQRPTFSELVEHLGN
Chain of CDK1 (P06493 whole entry, species assumed): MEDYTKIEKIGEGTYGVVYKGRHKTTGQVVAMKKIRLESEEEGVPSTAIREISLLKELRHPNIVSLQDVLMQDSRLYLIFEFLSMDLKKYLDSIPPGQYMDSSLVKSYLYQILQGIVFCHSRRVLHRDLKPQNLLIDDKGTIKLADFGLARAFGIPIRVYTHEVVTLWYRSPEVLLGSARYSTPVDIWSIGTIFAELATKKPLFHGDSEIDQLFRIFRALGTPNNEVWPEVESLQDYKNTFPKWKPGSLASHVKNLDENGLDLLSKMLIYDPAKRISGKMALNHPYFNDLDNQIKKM
Chain of CDK1 (P14635 whole entry partner, species assumed): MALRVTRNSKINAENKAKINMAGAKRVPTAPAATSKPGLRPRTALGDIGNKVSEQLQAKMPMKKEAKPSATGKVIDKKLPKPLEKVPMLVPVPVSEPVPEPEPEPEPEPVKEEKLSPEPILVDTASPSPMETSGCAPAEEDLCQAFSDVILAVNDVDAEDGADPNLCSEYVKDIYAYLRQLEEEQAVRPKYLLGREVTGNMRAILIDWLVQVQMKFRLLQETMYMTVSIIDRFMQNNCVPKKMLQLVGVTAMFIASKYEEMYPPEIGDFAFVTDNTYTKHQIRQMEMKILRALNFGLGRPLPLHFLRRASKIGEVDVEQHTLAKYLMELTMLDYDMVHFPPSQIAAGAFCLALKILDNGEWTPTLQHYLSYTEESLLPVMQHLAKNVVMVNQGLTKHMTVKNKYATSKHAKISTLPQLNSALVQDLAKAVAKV
Chain of cSrc (P12931 whole entry, species assumed): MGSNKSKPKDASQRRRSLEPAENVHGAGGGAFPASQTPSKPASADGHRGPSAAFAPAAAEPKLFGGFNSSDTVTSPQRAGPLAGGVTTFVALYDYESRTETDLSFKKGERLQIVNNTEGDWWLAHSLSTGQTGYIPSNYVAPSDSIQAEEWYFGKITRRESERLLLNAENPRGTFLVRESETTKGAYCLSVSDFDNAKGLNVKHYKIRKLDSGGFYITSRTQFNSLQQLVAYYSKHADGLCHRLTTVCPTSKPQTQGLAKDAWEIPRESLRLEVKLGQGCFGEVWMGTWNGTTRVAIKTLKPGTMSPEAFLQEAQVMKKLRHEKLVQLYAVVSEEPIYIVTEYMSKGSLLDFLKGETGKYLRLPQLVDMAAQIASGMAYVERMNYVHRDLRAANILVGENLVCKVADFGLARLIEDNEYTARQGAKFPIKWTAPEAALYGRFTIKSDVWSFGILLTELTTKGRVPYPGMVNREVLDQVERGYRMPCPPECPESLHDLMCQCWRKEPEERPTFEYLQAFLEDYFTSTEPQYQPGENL

| SMILES | IC50 (CDK1; read-out: CDK1 IC50) | IC50 (VEGFR2) | IC50 (cSrc) | IC50 (Lck) | IC50 (CDK1) | IC50 (CDK2) |
| --- | --- | --- | --- | --- | --- | --- |
| CC(C)(CO)CNS(=O)(=O)c1ccc(NC=C2C(=O)Nc3ccc4ncsc4c32)cc1 [Example 77, N-(3-Hydroxy-2,2-dimethyl-propyl)-4-[(7-oxo-6,7-dihydro-1-thia-3,6-diaza-as-indacen-8-ylidenemethyl)-amino]-benzenesulfonamide] | 1 to 10 nM |  |  |  |  |  |
| CNS(=O)(=O)Cc1ccc(NN=C2C(=O)Nc3cc(C)c(O)c(C)c32)cc1 [Example 99] | > 100 nM | > 100 nM | > 100 nM | > 100 nM |  |  |
| O=C1Nc2ccc3ncsc3c2C1=CNc1ccc(S(=O)(=O)Nc2ccccn2)cc1 [Example 72, 4-[(7-Oxo-6,7-dihydro-1-thia-3,6-diaza-as-indacen-8-ylidenemethyl)-amino]-N-pyridin-2-yl-benzenesulfonamide] |  | 51 to 100 nM | > 100 nM |  | 51 to 100 nM |  |
| CS(=O)(=O)Cc1ccc(NC=C2C(=O)Nc3ccc4ncsc4c32)cc1 [Example 76, 8-(4-Methylsulfonylmethyl-phenylamino-methylene)-6,8-dihydro-1-thia-3,6-diaza-as-indacen-7-one] | > 100 nM | > 100 nM | > 100 nM | > 100 nM |  | 11 to 50 nM |
| CNS(=O)(=O)Cc1ccc(NN=C2C(=O)Nc3ccc4ncccc4c32)cc1 [Example 68, N-Methyl-C-{4-[N′-(2-oxo-2,3-dihydro-pyrrolo[3,2-f]quinolin-1-ylidene)-hydrazino]-phenyl}-methanesulfonamide] | 51 to 100 nM |  |  | > 100 nM |  | 1 to 10 nM |
